According to patent publication EP2226070B1, “Process for determining the optimal dosage of antivitamins K in anticoagulant therapy” (Puech, Roger, priority 2009, dated 2010):

System: INR
Assay: Correlation of optimal dosages between different vitamin K antagonists, established with the dosage determination process
Format: in vivo, patient
Conditions: for dose correspondant à 1/4 de comprimé de "Préviscan" (corrélation proportionnelle entre différents antivitamines K): dose equivalent to 1/4 tablet of Préviscan for the optimal anticoagulant dosage
Excerpt: Ce procédé de détermination est original en ce qu'il comprend les étapes suivantes consistant : • (a) à enregistrer la valeur IO de l'INR optimal cible, • (b) à enregistrer les valeurs d'INR mesurées dans une période donnée T1 à partir d'un surdosage Dmaxi dudit antivitamine K fixé préalablement par le prescripteur au-dessus du dosage préconisé, afin de déterminer une première pente P1 des valeurs d'INR en fonction du temps T1, • (c) à partir de la pente P1, à extrapoler et à enregistrer une valeur Imaxi d'INR théoriquement atteinte à partir du jour où la valeur IO de l'INR cible est atteinte et au bout d'une période déterminée T0, • (d) à enregistrer les valeurs d'INR mesurées dans une période donnée T2 à partir d'un sous-dosage Dmini dudit antivitamine K fixé par le prescripteur au-dessous du dosage préconisé, afin de déterminer une deuxième pente P2 des valeurs d'INR en fonction du temps T2, • (e) à partir de la pente P2, à extrapoler et à enregistrer une valeur Imini d'INR théoriquement atteinte à partir du jour où la valeur IO de l'INR cible est atteinte et au bout de la même période déterminée T0, • (f) à calculer à partir de la différence entre les valeurs Imaxi et Imini d'INR théoriquement calculées, un facteur de correction de posologie dudit antivitamine K exprimé selon la formule suivante : F = (Imaxi -Imini)/(Dmaxi -Dmini) [formula] • (g) afin de déterminer à partir de la différence entre les valeurs I0 de l'INR cible optimal et de l'Imini de l'INR minimum calculé, et dudit facteur F de correction de posologie dudit antivitamine K, la posologie adéquate D0 permettant d'atteindre et de maintenir constante la valeur Io de l'INR cible fixée préalablement selon la relation suivante : D0 = Dmini + (I0 -Imini)/(F). [formula]
C'est aussi à partir de son procédé de détermination de dosage optimal d'un antivitamine K, que le demandeur a pu établir également une corrélation proportionnelle entre différents antivitamines K (1/4 de comprimé de "Préviscan" correspond à 0,82 mg de "Sintrom", à 2 mg de "Coumadine" ou à 0,82 mg de "Apegmone") de sorte qu'à partir d'un dosage optimal d'un antivitamine K prescrit, il peut calculer le dosage optimal d'un autre antivitamine K en remplacement du premier.

Structure (SMILES) | dose de référence de la corrélation proportionnelle entre différents antivitamines K (reference dose of the proportional correlation) | dose correspondant à 1/4 de comprimé de "Préviscan" (corrélation proportionnelle entre différents antivitamines K)
O=C1c2ccccc2C(=O)C1c1ccc(F)cc1 [Préviscan] | 1/4 | 
O=c1oc2ccccc2c(O)c1C(CC(O)c1ccc(Cl)cc1)c1ccc(Cl)s1 (stereo not shown) [Apegmone] |  | 0,82 mg
CC(=O)CC(c1ccc([N+](=O)[O-])cc1)c1c(O)c2ccccc2oc1=O (stereo not shown) [Sintrom] |  | 0,82 mg
CC(=O)CC(c1ccccc1)c1c(O)c2ccccc2oc1=O (stereo not shown) [Coumadine] |  | 2 mg
